Legend:
Experiment in all cases: cryo-EM structure of phycobilisome
Type in all cases: binding
[1] = target: T1, ApcE (Gloeobacter violaceus, UniProt Q7NL81); details: covalent; terminal emitter, D ring stacks on Trp162; ring conformation not resolved without restraints
T1 construct: native, within isolated GraFix cross-linked phycobilisome; bilin in N-terminal alpha-like domain, in third AP trimer of basal cylinders
T1 sequence (Q7NL81 1-1155): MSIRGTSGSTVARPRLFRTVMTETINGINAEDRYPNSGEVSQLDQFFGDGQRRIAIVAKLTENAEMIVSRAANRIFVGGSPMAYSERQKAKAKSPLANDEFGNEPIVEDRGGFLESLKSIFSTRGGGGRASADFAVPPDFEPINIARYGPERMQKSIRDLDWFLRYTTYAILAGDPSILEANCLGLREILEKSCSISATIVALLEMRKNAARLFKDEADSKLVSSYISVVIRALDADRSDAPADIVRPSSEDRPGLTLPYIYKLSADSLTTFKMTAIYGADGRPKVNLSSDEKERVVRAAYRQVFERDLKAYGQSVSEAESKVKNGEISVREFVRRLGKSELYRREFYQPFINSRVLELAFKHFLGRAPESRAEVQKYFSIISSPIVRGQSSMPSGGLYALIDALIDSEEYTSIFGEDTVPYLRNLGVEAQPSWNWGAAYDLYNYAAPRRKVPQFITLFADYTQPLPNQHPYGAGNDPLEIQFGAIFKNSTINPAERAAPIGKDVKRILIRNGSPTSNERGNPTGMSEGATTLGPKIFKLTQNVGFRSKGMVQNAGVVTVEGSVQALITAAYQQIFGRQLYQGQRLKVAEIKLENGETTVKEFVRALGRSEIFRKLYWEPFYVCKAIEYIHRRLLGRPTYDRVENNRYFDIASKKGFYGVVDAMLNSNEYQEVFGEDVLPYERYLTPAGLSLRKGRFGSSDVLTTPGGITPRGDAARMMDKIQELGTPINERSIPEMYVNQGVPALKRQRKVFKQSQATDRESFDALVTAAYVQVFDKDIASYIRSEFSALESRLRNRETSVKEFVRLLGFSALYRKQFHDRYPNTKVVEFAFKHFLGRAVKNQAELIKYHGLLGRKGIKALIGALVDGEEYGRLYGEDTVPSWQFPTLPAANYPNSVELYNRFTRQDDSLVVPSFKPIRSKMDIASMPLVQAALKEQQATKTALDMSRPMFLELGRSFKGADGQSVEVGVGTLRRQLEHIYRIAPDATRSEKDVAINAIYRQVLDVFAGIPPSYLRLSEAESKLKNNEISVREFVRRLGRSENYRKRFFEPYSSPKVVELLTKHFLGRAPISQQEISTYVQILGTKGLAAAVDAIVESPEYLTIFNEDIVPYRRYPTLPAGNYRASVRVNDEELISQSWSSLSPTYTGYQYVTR

[2] = target: T2, allophycocyanin (AP) (Gloeobacter violaceus, UniProt Q7NL79+Q7NL80); details: covalent; one bilin on each alpha and beta subunit
T2 construct: gene apcA; native, (αβ)3 trimers of the pentacylindrical core in isolated GraFix cross-linked phycobilisome
T2 sequence (Q7NL80 1-161): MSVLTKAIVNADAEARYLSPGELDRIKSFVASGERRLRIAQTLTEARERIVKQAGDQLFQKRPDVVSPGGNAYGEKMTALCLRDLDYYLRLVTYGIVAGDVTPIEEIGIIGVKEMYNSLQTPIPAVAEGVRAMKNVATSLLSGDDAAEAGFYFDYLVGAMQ
T2 sequence (Q7NL79 1-161): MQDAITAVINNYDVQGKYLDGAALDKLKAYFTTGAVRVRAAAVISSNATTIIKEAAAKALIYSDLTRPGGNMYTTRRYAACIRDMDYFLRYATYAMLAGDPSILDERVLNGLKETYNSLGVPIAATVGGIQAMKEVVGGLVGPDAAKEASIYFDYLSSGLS

[3] = target: T3, phycocyanin (PC) (Gloeobacter violaceus, UniProt Q7M7C7+Q7M7F7); details: covalent; one bilin on alpha, two on beta
T3 construct: gene cpcA; native, (αβ)6 hexamers of rods and Rx in isolated GraFix cross-linked phycobilisome
T3 sequence (Q7M7F7 1-162): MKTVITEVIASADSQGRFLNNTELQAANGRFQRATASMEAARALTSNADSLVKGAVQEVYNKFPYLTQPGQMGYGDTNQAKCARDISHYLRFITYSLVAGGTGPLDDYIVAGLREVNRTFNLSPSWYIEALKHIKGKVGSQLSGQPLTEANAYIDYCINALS
T3 sequence (Q7M7C7 1-172): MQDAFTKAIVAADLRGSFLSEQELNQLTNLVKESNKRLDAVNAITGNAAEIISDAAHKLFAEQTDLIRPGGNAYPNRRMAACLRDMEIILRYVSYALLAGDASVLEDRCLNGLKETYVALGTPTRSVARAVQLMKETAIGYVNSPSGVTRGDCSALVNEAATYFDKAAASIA

CC=C1C(=Cc2[nH]c(C=C3N=C(C=C4NC(=O)C(CC)=C4C)C(C)=C3CCC(=O)O)c(CCC(=O)O)c2C)NC(=O)C1C (stereo not drawn) [phycocyanobilin]
cryo-EM structure of phycobilisome [1]: resolved in cryo-EM density map, including the terminal emitting bilin in ApcE
cryo-EM structure of phycobilisome [2]: PCB conformations within PC hexamers in rods and AP hexamers in the core were resolved
cryo-EM structure of phycobilisome [3]: PCB conformations within PC hexamers in rods and AP hexamers in the core were resolved
